SMILES strings stand for the structures.

Holding throughout (format): binding, Bubalus bubalis
Test [1] concerns the target T1, OBP1a (bnOBP isoform 1a; also printed 1OBPa).
T1 construct: gene OBP
Nature of the test: competitive 1-NPN displacement fluorescence. As to conditions: 2 µM protein, 2 µM 1-NPN, 50 mM Tris-HCl, 300 mM NaCl, pH 8.0; competitive with 1-NPN.

For test [2] the target is unchanged. Nature of the test: competitive 1-NPN displacement fluorescence. To be noted: 2 µM protein, 2 µM 1-NPN, 50 mM Tris-HCl, 300 mM NaCl, pH 8.0; competitive with 1-NPN. From the text: competitive 1-NPN displacement fluorescence on OBP1a (bnOBP isoform 1a; also printed 1OBPa)
This is another data set of the same source.

The target is the same in test [3]. Description: fluorescence titration. As to conditions: 50 mM Tris-HCl, 300 mM NaCl, pH 8.0; 2 µM protein; fluorescent probe; read-out: dissociation constant.

As for `CCCCCCCC/C=C\CCCCCCCC(=O)O` [oleic acid], the Ki in test [1] is 4.2 µM.

As to `Cc1ccc(O)cc1` [p-cresol], the Ki in test [2] worked out at 266 µM; in test [1], 3.5 µM.

For `c1ccc(Nc2cccc3ccccc23)cc1` [N-phenyl-1-naphthylamine], in test [3], the Kd came to 0.7 µM.
